Experiment in all cases: relative viability (nuclei count vs DMSO), 5 days (fraction); higher = more cells survive
Compound in the experiment “Gemcitabine + Vorinostat”: Nc1ccn([C@@H]2O[C@H](CO)[C@@H](O)C2(F)F)c(=O)n1 [Gemcitabine] + O=C(CCCCCCC(=O)Nc1ccccc1)NO [Vorinostat] (partner 1 µM)
Summed up: (§1)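 After 5 days of treatment, lung cancer cells in 1536-well plates were fixed and stained in a single step (final 0.05% Triton X-100, 1% formaldehyde, 1 ug/ml Hoechst) and their nuclei counted on 4× images. Treatment had been applied by pin tool the day after seeding as one drug alone or as a fixed anchor-drug dose with five library-drug doses (not always all listed) in √10 steps. Relative viability is the nuclei count of treated wells divided by that of vehicle wells, and values are medians of duplicate plates.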

Compound in the experiment “Gemcitabine + Crizotinib”: Nc1ccn([C@@H]2O[C@H](CO)[C@@H](O)C2(F)F)c(=O)n1 [Gemcitabine] + C[C@@H](Oc1cc(-c2cnn(C3CCNCC3)c2)cnc1N)c1c(Cl)ccc(F)c1Cl [Crizotinib] (partner 1 µM)
Summed up: as §1

Compound in the experiment “Gemcitabine + Navitoclax”: Nc1ccn([C@@H]2O[C@H](CO)[C@@H](O)C2(F)F)c(=O)n1 [Gemcitabine] + CC1(C)CCC(c2ccc(Cl)cc2)=C(CN2CCN(c3ccc(C(=O)NS(=O)(=O)c4ccc(N[C@H](CCN5CCOCC5)CSc5ccccc5)c(S(=O)(=O)C(F)(F)F)c4)cc3)CC2)C1 [Navitoclax] (partner 0.5 µM)
In short, it runs like this:
as §1

Compound in the experiment “Gemcitabine + Dasatinib”: Nc1ccn([C@@H]2O[C@H](CO)[C@@H](O)C2(F)F)c(=O)n1 [Gemcitabine] + Cc1nc(Nc2ncc(C(=O)Nc3c(C)cccc3Cl)s2)cc(N2CCN(CCO)CC2)n1 [Dasatinib] (partner 0.075 µM)
Summed up: as §1

As for NCI-H2023, the relative viability in the experiment with Gemcitabine + Vorinostat (first compound 0.001 µM) is 0.773; with Gemcitabine + Vorinostat (first compound 0.003162 µM) it was 0.388; with Gemcitabine + Vorinostat (first compound 0.01 µM), 0.259; in the experiment with Gemcitabine + Vorinostat (first compound 0.03162 µM) it was 0.0711; with Gemcitabine + Vorinostat (first compound 0.1 µM) it was 0.061; with Gemcitabine + Crizotinib (first compound 0.001 µM) it was 0.702. Further, the relative viability with Gemcitabine + Crizotinib (first compound 0.003162 µM) is 0.633; with Gemcitabine + Crizotinib (first compound 0.01 µM) it was 0.504; with Gemcitabine + Crizotinib (first compound 0.03162 µM), 0.095; with Gemcitabine + Crizotinib (first compound 0.1 µM), 0.0687; in the experiment with Gemcitabine + Navitoclax (first compound 0.001 µM), 0.986; with Gemcitabine + Navitoclax (first compound 0.003162 µM), 0.794. For the same cell line, the relative viability with Gemcitabine + Navitoclax (first compound 0.01 µM) is 0.667; with Gemcitabine + Navitoclax (first compound 0.03162 µM), 0.135; with Gemcitabine + Navitoclax (first compound 0.1 µM), 0.0835; with Gemcitabine + Dasatinib (first compound 0.001 µM) it was 0.529; with Gemcitabine + Dasatinib (first compound 0.003162 µM) it was 0.533; in the experiment with Gemcitabine + Dasatinib (first compound 0.01 µM) it was 0.207. The values for the relative viability in the experiment with Gemcitabine + Dasatinib (first compound 0.03162 µM) and with Gemcitabine + Dasatinib (first compound 0.1 µM) were 0.0853 and 0.0604, respectively.
For the cell line COR-L 105, the relative viability in the experiment with Gemcitabine + Vorinostat (first compound 0.001 µM) came out at 0.82; in the experiment with Gemcitabine + Vorinostat (first compound 0.003162 µM), 0.726; in the experiment with Gemcitabine + Vorinostat (first compound 0.01 µM), 0.56; with Gemcitabine + Vorinostat (first compound 0.03162 µM) it was 0.336; with Gemcitabine + Vorinostat (first compound 0.1 µM) it was 0.27; in the experiment with Gemcitabine + Crizotinib (first compound 0.001 µM), 1.09. Besides, the relative viability is 0.825 with Gemcitabine + Crizotinib (first compound 0.003162 µM); 0.577 in the experiment with Gemcitabine + Crizotinib (first compound 0.01 µM); 0.286 with Gemcitabine + Crizotinib (first compound 0.03162 µM); 0.197 with Gemcitabine + Crizotinib (first compound 0.1 µM); 0.792 with Gemcitabine + Navitoclax (first compound 0.001 µM); 0.581 with Gemcitabine + Navitoclax (first compound 0.003162 µM). Also, the relative viability with Gemcitabine + Navitoclax (first compound 0.01 µM) worked out at 0.544; with Gemcitabine + Navitoclax (first compound 0.03162 µM), 0.291; with Gemcitabine + Navitoclax (first compound 0.1 µM), 0.263; with Gemcitabine + Dasatinib (first compound 0.001 µM), 0.295; with Gemcitabine + Dasatinib (first compound 0.003162 µM) it was 0.318; with Gemcitabine + Dasatinib (first compound 0.01 µM), 0.274. Further, the relative viability with Gemcitabine + Dasatinib (first compound 0.03162 µM) came to 0.198; with Gemcitabine + Dasatinib (first compound 0.1 µM), 0.154.
On to NCI-H1734, for which the relative viability amounted to 0.746 with Gemcitabine + Vorinostat (first compound 0.001 µM); 0.626 in the experiment with Gemcitabine + Vorinostat (first compound 0.003162 µM); 0.119 in the experiment with Gemcitabine + Vorinostat (first compound 0.01 µM); 0.114 with Gemcitabine + Vorinostat (first compound 0.03162 µM); 0.0915 with Gemcitabine + Vorinostat (first compound 0.1 µM); 0.8 with Gemcitabine + Crizotinib (first compound 0.001 µM). Moreover, the relative viability with Gemcitabine + Crizotinib (first compound 0.003162 µM) was determined as 0.48; in the experiment with Gemcitabine + Crizotinib (first compound 0.01 µM), 0.246; in the experiment with Gemcitabine + Crizotinib (first compound 0.03162 µM) it was 0.106; with Gemcitabine + Crizotinib (first compound 0.1 µM) it was 0.104; in the experiment with Gemcitabine + Navitoclax (first compound 0.001 µM), 0.843; with Gemcitabine + Navitoclax (first compound 0.003162 µM), 0.562. The relative viability with Gemcitabine + Navitoclax (first compound 0.01 µM) was determined as 0.195; with Gemcitabine + Navitoclax (first compound 0.03162 µM), 0.106; with Gemcitabine + Navitoclax (first compound 0.1 µM) it was 0.0836; in the experiment with Gemcitabine + Dasatinib (first compound 0.001 µM), 0.385; with Gemcitabine + Dasatinib (first compound 0.003162 µM), 0.354; with Gemcitabine + Dasatinib (first compound 0.01 µM), 0.111. Moreover, the relative viability is 0.0942 with Gemcitabine + Dasatinib (first compound 0.03162 µM) and 0.091 with Gemcitabine + Dasatinib (first compound 0.1 µM).
Regarding NCI-H3122, the relative viability was 0.926 with Gemcitabine + Vorinostat (first compound 0.001 µM); 1.09 in the experiment with Gemcitabine + Vorinostat (first compound 0.003162 µM); 0.618 in the experiment with Gemcitabine + Vorinostat (first compound 0.01 µM); 0.202 in the experiment with Gemcitabine + Vorinostat (first compound 0.03162 µM); 0.098 in the experiment with Gemcitabine + Vorinostat (first compound 0.1 µM); 0.306 with Gemcitabine + Crizotinib (first compound 0.001 µM). In addition, the relative viability in the experiment with Gemcitabine + Crizotinib (first compound 0.003162 µM) is 0.27; with Gemcitabine + Crizotinib (first compound 0.01 µM), 0.253; with Gemcitabine + Crizotinib (first compound 0.03162 µM), 0.135; with Gemcitabine + Crizotinib (first compound 0.1 µM) it was 0.119; with Gemcitabine + Navitoclax (first compound 0.001 µM), 1.02; with Gemcitabine + Navitoclax (first compound 0.003162 µM), 1.03. Moreover, the relative viability is 0.912 with Gemcitabine + Navitoclax (first compound 0.01 µM); 0.253 in the experiment with Gemcitabine + Navitoclax (first compound 0.03162 µM); 0.196 in the experiment with Gemcitabine + Navitoclax (first compound 0.1 µM); 0.852 with Gemcitabine + Dasatinib (first compound 0.001 µM); 0.89 in the experiment with Gemcitabine + Dasatinib (first compound 0.003162 µM); 0.588 with Gemcitabine + Dasatinib (first compound 0.01 µM). Moreover, the figures for the relative viability with Gemcitabine + Dasatinib (first compound 0.03162 µM) and in the experiment with Gemcitabine + Dasatinib (first compound 0.1 µM) were 0.0797 and 0.0782, respectively.
As to CAL-12T, the relative viability with Gemcitabine + Vorinostat (first compound 0.001 µM) was 0.864; with Gemcitabine + Vorinostat (first compound 0.003162 µM) it was 0.744; with Gemcitabine + Vorinostat (first compound 0.01 µM), 0.715; with Gemcitabine + Vorinostat (first compound 0.03162 µM), 0.272; with Gemcitabine + Vorinostat (first compound 0.1 µM), 0.178; with Gemcitabine + Crizotinib (first compound 0.001 µM) it was 0.684. For the same cell line, the relative viability with Gemcitabine + Crizotinib (first compound 0.003162 µM) is 0.745; with Gemcitabine + Crizotinib (first compound 0.01 µM), 0.662; with Gemcitabine + Crizotinib (first compound 0.03162 µM) it was 0.227; with Gemcitabine + Crizotinib (first compound 0.1 µM), 0.104; in the experiment with Gemcitabine + Navitoclax (first compound 0.001 µM), 1.14; with Gemcitabine + Navitoclax (first compound 0.003162 µM), 1.1. For the same cell line, the relative viability in the experiment with Gemcitabine + Navitoclax (first compound 0.01 µM) stood at 0.845; with Gemcitabine + Navitoclax (first compound 0.03162 µM), 0.164; in the experiment with Gemcitabine + Navitoclax (first compound 0.1 µM), 0.141; with Gemcitabine + Dasatinib (first compound 0.001 µM) it was 0.473; in the experiment with Gemcitabine + Dasatinib (first compound 0.003162 µM), 0.395; in the experiment with Gemcitabine + Dasatinib (first compound 0.01 µM) it was 0.302. The relative viability with Gemcitabine + Dasatinib (first compound 0.03162 µM) came out at 0.128; with Gemcitabine + Dasatinib (first compound 0.1 µM), 0.114.
In the case of HCC-78, the relative viability worked out at 0.405 with Gemcitabine + Vorinostat (first compound 0.001 µM); 0.276 in the experiment with Gemcitabine + Vorinostat (first compound 0.003162 µM); 0.215 with Gemcitabine + Vorinostat (first compound 0.01 µM); 0.225 with Gemcitabine + Vorinostat (first compound 0.03162 µM); 0.23 with Gemcitabine + Vorinostat (first compound 0.1 µM); 0.271 with Gemcitabine + Crizotinib (first compound 0.001 µM). In addition, the relative viability with Gemcitabine + Crizotinib (first compound 0.003162 µM) is 0.26; with Gemcitabine + Crizotinib (first compound 0.01 µM), 0.167; with Gemcitabine + Crizotinib (first compound 0.03162 µM) it was 0.146; with Gemcitabine + Crizotinib (first compound 0.1 µM), 0.15; with Gemcitabine + Navitoclax (first compound 0.001 µM) it was 0.795; with Gemcitabine + Navitoclax (first compound 0.003162 µM) it was 0.428. For the same cell line, the relative viability with Gemcitabine + Navitoclax (first compound 0.01 µM) is 0.191; with Gemcitabine + Navitoclax (first compound 0.03162 µM), 0.119; with Gemcitabine + Navitoclax (first compound 0.1 µM), 0.104; with Gemcitabine + Dasatinib (first compound 0.001 µM), 0.322; in the experiment with Gemcitabine + Dasatinib (first compound 0.003162 µM), 0.31; with Gemcitabine + Dasatinib (first compound 0.01 µM), 0.232. Also, the relative viability in the experiment with Gemcitabine + Dasatinib (first compound 0.03162 µM) was determined as 0.154; with Gemcitabine + Dasatinib (first compound 0.1 µM) it was 0.209.
Consider NCI-H2085, for which the relative viability worked out at 0.857 in the experiment with Gemcitabine + Vorinostat (first compound 0.001 µM); 0.739 in the experiment with Gemcitabine + Vorinostat (first compound 0.003162 µM); 0.652 with Gemcitabine + Vorinostat (first compound 0.01 µM); 0.621 with Gemcitabine + Vorinostat (first compound 0.03162 µM); 0.368 in the experiment with Gemcitabine + Vorinostat (first compound 0.1 µM); 0.74 with Gemcitabine + Crizotinib (first compound 0.001 µM). The relative viability came out at 0.828 with Gemcitabine + Crizotinib (first compound 0.003162 µM); 0.699 with Gemcitabine + Crizotinib (first compound 0.01 µM); 0.585 with Gemcitabine + Crizotinib (first compound 0.03162 µM); 0.4 with Gemcitabine + Crizotinib (first compound 0.1 µM); 1.1 in the experiment with Gemcitabine + Navitoclax (first compound 0.001 µM); 1.15 with Gemcitabine + Navitoclax (first compound 0.003162 µM). Besides, the relative viability with Gemcitabine + Navitoclax (first compound 0.01 µM) is 0.848; in the experiment with Gemcitabine + Navitoclax (first compound 0.03162 µM), 0.646; with Gemcitabine + Navitoclax (first compound 0.1 µM), 0.484; with Gemcitabine + Dasatinib (first compound 0.001 µM) it was 0.221; with Gemcitabine + Dasatinib (first compound 0.003162 µM) it was 0.232; with Gemcitabine + Dasatinib (first compound 0.01 µM), 0.287. Also, the relative viability with Gemcitabine + Dasatinib (first compound 0.03162 µM) came to 0.206; in the experiment with Gemcitabine + Dasatinib (first compound 0.1 µM), 0.158.
